“And” between values parts separate entries of the source, which are not always exact repeats. Equal entries are not always repeated.
Test: molar heat capacity at constant pressure
Conditions: 101.33 kPa, Liquid, Small sample (50 mg) DSC

OCCC1CCCCC1 [2-cyclohexylethanol]
Conditions	molar heat capacity at constant pressure
253.5 K	222 J/K/mol and 223.33 J/K/mol
256.05 K	226.07 J/K/mol and 226.32 J/K/mol
260.65 K	229.4 J/K/mol and 229.73 J/K/mol
265.75 K	233.72 J/K/mol and 233.97 J/K/mol
270.86 K	238.29 J/K/mol and 238.21 J/K/mol
275.96 K	242.12 J/K/mol and 242.2 J/K/mol
281.07 K	246.19 J/K/mol and 246.44 J/K/mol
286.17 K	251.6 J/K/mol and 251.26 J/K/mol
291.28 K	256.67 J/K/mol and 256.42 J/K/mol
296.38 K	261.91 J/K/mol and 262.07 J/K/mol
301.48 K	267.56 J/K/mol and 266.98 J/K/mol
306.59 K	273.13 J/K/mol and 273.21 J/K/mol
311.7 K	278.7 J/K/mol and 279.03 J/K/mol
316.81 K	284.35 J/K/mol
321.91 K	290.17 J/K/mol and 289.93 J/K/mol
327.01 K	295.5 J/K/mol and 295.58 J/K/mol
332.12 K	301.15 J/K/mol and 300.82 J/K/mol
337.22 K	307.39 J/K/mol and 306.64 J/K/mol
342.33 K	313.87 J/K/mol and 312.71 J/K/mol
347.43 K	318.61 J/K/mol and 317.95 J/K/mol
352.54 K	323.27 J/K/mol and 322.6 J/K/mol

C=CCO [2-propenol]
Conditions	molar heat capacity at constant pressure
273.41 K	134.94 J/K/mol and 134.61 J/K/mol
278.52 K	137.19 J/K/mol and 137.35 J/K/mol
283.62 K	139.43 J/K/mol and 139.18 J/K/mol
288.72 K	141.93 J/K/mol and 141.68 J/K/mol
293.83 K	144.34 J/K/mol and 144.17 J/K/mol
298.93 K	146.67 J/K/mol and 146.5 J/K/mol
304.04 K	149.16 J/K/mol and 149.08 J/K/mol
309.14 K	152.32 J/K/mol and 151.82 J/K/mol
314.25 K	154.82 J/K/mol and 154.4 J/K/mol
319.35 K	157.23 J/K/mol and 157.06 J/K/mol
324.46 K	160.14 J/K/mol and 160.3 J/K/mol

OCCCC1CCCCC1 [3-cyclohexyl-1-propanol]
Conditions	molar heat capacity at constant pressure
258.09 K	254.42 J/K/mol and 254.84 J/K/mol
263.2 K	258.91 J/K/mol and 258.66 J/K/mol
268.3 K	263.07 J/K/mol and 262.65 J/K/mol
273.41 K	267.64 J/K/mol and 267.48 J/K/mol
278.51 K	272.22 J/K/mol and 271.97 J/K/mol
283.62 K	277.37 J/K/mol and 277.12 J/K/mol
288.72 K	282.28 J/K/mol
293.83 K	288.01 J/K/mol and 287.76 J/K/mol
298.93 K	293.5 J/K/mol and 293.33 J/K/mol
304.04 K	299.74 J/K/mol
309.14 K	305.72 J/K/mol and 305.64 J/K/mol
314.25 K	311.63 J/K/mol and 311.54 J/K/mol
319.35 K	317.61 J/K/mol and 317.7 J/K/mol
324.46 K	323.6 J/K/mol and 323.85 J/K/mol
329.56 K	330.5 J/K/mol and 330 J/K/mol
334.67 K	335.9 J/K/mol and 336.24 J/K/mol
339.77 K	342.31 J/K/mol and 342.39 J/K/mol
344.88 K	348.46 J/K/mol and 348.63 J/K/mol
349.98 K	354.28 J/K/mol and 354.61 J/K/mol
355.09 K	360.35 J/K/mol and 360.02 J/K/mol

OCC1CCCCC1 [cyclohexylmethanol]
Conditions	molar heat capacity at constant pressure
258.09 K	199.13 J/K/mol and 198.88 J/K/mol
263.2 K	202.87 J/K/mol and 202.54 J/K/mol
268.3 K	207.03 J/K/mol and 206.61 J/K/mol
273.41 K	211.52 J/K/mol and 210.94 J/K/mol
278.51 K	215.68 J/K/mol and 215.18 J/K/mol
283.62 K	220.83 J/K/mol and 219.83 J/K/mol
288.72 K	225.32 J/K/mol and 224.74 J/K/mol
293.83 K	230.56 J/K/mol and 229.98 J/K/mol
298.93 K	236.46 J/K/mol and 235.55 J/K/mol
304.04 K	242.28 J/K/mol and 241.62 J/K/mol
309.14 K	247.94 J/K/mol and 247.36 J/K/mol
314.25 K	254.26 J/K/mol and 253.34 J/K/mol
319.35 K	260.24 J/K/mol and 259.49 J/K/mol
324.46 K	265.98 J/K/mol and 265.56 J/K/mol
329.57 K	271.38 J/K/mol and 270.55 J/K/mol
334.67 K	276.54 J/K/mol and 275.87 J/K/mol
339.77 K	281.78 J/K/mol and 280.86 J/K/mol
344.88 K	287.35 J/K/mol and 286.52 J/K/mol
349.98 K	292.34 J/K/mol and 291.51 J/K/mol
355.09 K	296.83 J/K/mol and 296.33 J/K/mol

Reference: the NIST ThermoML archive (doi:10.1016/j.tca.2014.03.043)
